Test results from patent US9611262B2, “Substituted 2-azabicycles and their use as orexin receptor modulators” (JANSSEN PHARMACEUTICA NV, priority 2014, dated 2017).

Columns and labels:
human orexin 2 receptor = human orexin 2 receptor (Homo sapiens (Human), UniProt O43614); assay: Human orexin 2 receptor radioligand binding ([3H]-EMPA competition); settings: HEK293 stably expressing human orexin 2 receptor; 2 nM [3H]-EMPA; averages of 2-20 runs; read-out: hOX2 Ki
How it was run: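 Membranes-free whole HEK293 cells stably expressing human OX2 receptor incubated with [3H]-EMPA and compound (7 concentrations, 0.1 nM–10 μM, ≤0.1% DMSO) for 60 min at room temperature; nonspecific binding with 10 μM almorexant. Filtration and scintillation counting; one-site IC50 converted to Ki using predetermined Kd, triplicates averaged over 2-20 runs.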

rat orexin 1 receptor = rat orexin 1 receptor (Rattus norvegicus, UniProt P56718); assay: Rat orexin 1 receptor radioligand binding (competitive); settings: HEK293 cells stably expressing rat orexin 1 receptor; 4 nM radioligand; averages of 2-20 runs; read-out: rOX1 Ki
Description: (§1) The in vitro affinity of the compounds of the invention for the rat/human orexin 1 and human orexin 2 receptors was determined by competitive radioligand binding using [^3H](1-(5-(2-fluoro-phenyl)-2-methyl-thiazol-4-yl)-1-((S)-2-(5-phenyl-(1,3,4)oxadiazol-2-ylmethyl)-pyrrolidin-1-yl)-methanone) (Langmead et al., 2004) and [^3H]EMPA (n-ethyl-2[96-methoxy-pyridin-3-yl)-(toluene-2-sulfonyl)-amino]-N-pyridin-3-ylmethyl acetamide), respectively (Langmead et al., 2004, British Journal of Pharmacology 141:340-346; Malherbe et al., 2004, British Journal of Pharmacology 156:1326-41).
(§2) Data are analyzed using pc-Sandy macro and graphed on Graphpad Prism 5. For analysis, each concentration point is averaged from triplicate values and the averaged values are plotted on Graphpad Prism. The IC50 was determined by applying the following equation (GraphPad Prism 5.0, San Diego) for one site competition where X=log (concentration) and Y=specific binding. Top denotes the total [^3H]— (1-(5-(2-fluoro-phenyl)-2-methyl-thiazol-4-yl)-1-((S)-2-(5-phenyl-(1,3,4)oxadiazol-2-ylmethyl)-pyrrolidin-1-yl)-methanone) binding, bottom denotes the nonspecific [^3H]— (1-(5-(2-fluoro-phenyl)-2-methyl-thiazol-4-yl)-1-((S)-2-(5-phenyl-(1,3,4)oxadiazol-2-ylmethyl)-pyrrolidin-1-yl)-methanone) binding. Graphpad Prism calculates Ki value from IC50 and the pre-determined Kd values for [^3H]— (1-(5-(2-fluoro-phenyl)-2-methyl-thiazol-4-yl)-1-((S)-2-(5-phenyl-(1,3,4)oxadiazol-2-ylmethyl)-pyrrolidin-1-yl)-methanone) and [^3H]-EMPA. The Ki for each compound is then uploaded into 3DX. Each run comprises individual compounds in triplicate. The data in Table 1 and Table 2 represent averages from between 2-20 runs
(§3) Rat and Human Orexin 1 Receptor Radioligand Binding Studies
(§4) Human Embryonic Kidney 293 cells (HEK293) stably expressing rat orexin 1 receptor (Genebank accession number NM_001525) or Chinese ovary cells (CHO) stably expressing human orexin 1 receptor (Genebank accession number […]) were grown to confluency in DMEM (Hyclone, cat # SH30022), 10% FBS, 1× Pen/Strep, 1× sodium pyruvate, 10 mM HEPES, 600 μg/mL G418 and DMEM/F12 (Gibco, Cat #11039), 10% FBS, 1× Pen/Strep, 600 μg/mL G418 media, respectively on 150 cm^2 tissue culture plates, washed with 5 mM EDTA in PBS (HyClone Dulbecco's Phosphate Buffered Saline 1× with Calcium and Magnesium, Cat # SH30264.01, hereafter referred to simply as PBS) and scraped into 50 ml tubes. After centrifugation (2K×G, 5 min at 4° C.), the supernatant was aspirated and the pellets frozen and stored at −80° C. Cells were resuspended in PBS in the presence of 1 tablet of protease inhibitor cocktail (Roche, Cat. #11836145001) per 50 mL. […] Competition binding experiments in 96 well polypropylene plates were performed using [^3H]— (1-(5-(2-fluoro-phenyl)-2-methyl-thiazol-4-yl)-1-((S)-2-(5-phenyl-(1,3,4)oxadiazol-2-ylmethyl)-pyrrolidin-1-yl)-methanone) (Moraveck Corporation, specific activity=35.3 Ci/mmol), diluted to a 10 nM concentration in PBS (4 nM final). Compounds were solubilized in 100% DMSO (Acros Organics, Cat. #61042-1000) and tested over a range of 7 concentrations (from 0.1 nM to 10 μM). The final concentration of DMSO in the reactions is equal to or less than 0.1%. Total and nonspecific binding was determined in the absence and presence of 10 μM almorexant. The total volume of each reaction is 200 μL (20 μL of diluted compounds, 80 μL of [^3H]— (1-(5-(2-fluoro-phenyl)-2-methyl-thiazol-4-yl)-1-((S)-2-(5-phenyl-(1,3,4)oxadiazol-2-ylmethyl)-pyrrolidin-1-yl)-methanone) diluted in PBS and 100 μL of the cell suspension). Reactions were run for 60 min at room temperature and terminated by filtration through GF/C filter plates (PerkinElmer, Cat. #6005174) presoaked in 0.3% polyethylenimine using the cell harvester (PerkinElmer Filtermate). The plates were washed 3 times by aspirating 30 ml PBS through the plates. Plates were dried in 55° C. oven for 60 min, scintillation fluid was added, and the radioactivity was counted on a Topcount (Packard). […]

human orexin 1 receptor = human orexin 1 receptor (Homo sapiens (Human), UniProt O43613); assay: Human orexin 1 receptor radioligand binding (competitive); settings: CHO cells stably expressing human orexin 1 receptor; 4 nM radioligand; averages of 2-20 runs; read-out: hOX1 Ki
Chain of human orexin 1 receptor (O43613 whole entry): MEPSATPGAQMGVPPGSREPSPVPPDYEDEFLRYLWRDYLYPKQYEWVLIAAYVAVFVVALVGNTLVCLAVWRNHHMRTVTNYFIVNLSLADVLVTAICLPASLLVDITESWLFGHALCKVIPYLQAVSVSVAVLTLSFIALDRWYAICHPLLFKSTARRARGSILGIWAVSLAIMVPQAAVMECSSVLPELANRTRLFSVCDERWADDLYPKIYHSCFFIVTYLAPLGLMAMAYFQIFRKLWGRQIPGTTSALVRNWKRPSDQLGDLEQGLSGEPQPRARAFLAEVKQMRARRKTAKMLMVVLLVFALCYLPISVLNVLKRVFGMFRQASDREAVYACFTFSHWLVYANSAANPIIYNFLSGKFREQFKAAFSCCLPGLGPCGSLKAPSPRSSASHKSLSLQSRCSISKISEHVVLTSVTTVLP
Description: as §1, §2, §3, §4

Chain of human orexin 2 receptor (O43614 whole entry): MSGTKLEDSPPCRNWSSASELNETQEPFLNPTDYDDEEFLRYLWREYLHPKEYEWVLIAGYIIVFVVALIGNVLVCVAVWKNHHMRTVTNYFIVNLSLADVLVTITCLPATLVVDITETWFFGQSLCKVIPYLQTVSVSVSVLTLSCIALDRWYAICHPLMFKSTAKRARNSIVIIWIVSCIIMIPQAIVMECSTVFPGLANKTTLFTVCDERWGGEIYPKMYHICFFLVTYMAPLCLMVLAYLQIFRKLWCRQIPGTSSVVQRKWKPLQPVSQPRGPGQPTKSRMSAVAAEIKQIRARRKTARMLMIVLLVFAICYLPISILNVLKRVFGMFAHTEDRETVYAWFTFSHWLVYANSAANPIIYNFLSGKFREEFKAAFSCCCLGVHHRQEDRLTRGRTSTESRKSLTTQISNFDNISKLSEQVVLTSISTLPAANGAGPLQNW

| SMILES | Ki (human orexin 2 receptor) | Ki (rat orexin 1 receptor) | Ki (human orexin 1 receptor) |
| --- | --- | --- | --- |
| C[C@@H]1[C@H]2C[C@@H](Oc3ccc(C(F)(F)F)cn3)[C@H](C2)N1C(=O)c1ccccc1-c1ncc(OCCF)cn1 [Example 169, [2-[5-(2-fluoroethoxy)pyrimidin-2-yl]phenyl]-[(1R,2R,4S,5R)-2-methyl-5-[[5-(trifluoromethyl)-2-pyridyl]oxy]-3-azabicyclo[2.2.1]heptan-3-yl]methanone] | 3940 nM | 52 nM |  |
| C[C@@H]1[C@H]2C[C@@H](Oc3ccc(C(F)(F)F)cn3)[C@H](C2)N1C(=O)c1ccccc1-c1cnc(F)cn1 [Example 170, [2-(5-fluoropyrazin-2-yl)phenyl]-[(1R,2R,4S,5R)-2-methyl-5-[[5-(trifluoromethyl)-2-pyridyl]oxy]-3-azabicyclo[2.2.1]heptan-3-yl]methanone] | 1600 nM | 9 nM |  |
| C[C@@H]1[C@H]2C[C@@H](Oc3ccc(C(F)(F)F)cn3)[C@H](C2)N1C(=O)c1ccccc1-c1cccc(F)n1 [Example 173, [2-(6-fluoro-2-pyridyl)phenyl]-[(1R,2R,4S,5R)-2-methyl-5-[[5-(trifluoromethyl)-2-pyridyl]oxy]-3-azabicyclo[2.2.1]heptan-3-yl]methanone] | 343 nM |  | 5 nM |
| O=C(c1c(F)cccc1-n1nccn1)N1[C@H](CO)[C@@H]2CC[C@H]1[C@H](Oc1ccc(C(F)(F)F)cn1)C2 [Example 177, [2-fluoro-6-(triazol-2-yl)phenyl]-[(1R,2S,4S,5R)-2-(hydroxymethyl)-5-[[5-(trifluoromethyl)-2-pyridyl]oxy]-3-azabicyclo[2.2.2]octan-3-yl]methanone] | > 10000 nM | 1150 nM |  |
| O=C(c1cc(F)ccc1-c1ncc(F)cn1)N1[C@H](CO)[C@@H]2CC[C@H]1[C@H](Oc1ccc(C(F)(F)F)cn1)C2 [Example 178, [5-fluoro-2-(5-fluoropyrimidin-2-yl)phenyl]-[(1R,2S,4S,5R)-2-(hydroxymethyl)-5-[[5-(trifluoromethyl)-2-pyridyl]oxy]-3-azabicyclo[2.2.2]octan-3-yl]methanone] | > 10000 nM | 1100 nM |  |
| COC[C@@H]1[C@@H]2CC[C@@H]([C@H](Oc3ccc(C(F)(F)F)cn3)C2)N1C(=O)c1nc(C)ccc1-n1nccn1 [Example 179, [(1R,2S,4S,5R)-2-(methoxymethyl)-5-[[5-(trifluoromethyl)-2-pyridyl]oxy]-3-azabicyclo[2.2.2]octan-3-yl]-[6-methyl-3-(triazol-2-yl)-2-pyridyl]methanone] | 2100 nM | 15 nM |  |
| COC[C@@H]1[C@@H]2CC[C@@H]([C@H](Oc3ccc(C(F)(F)F)cn3)C2)N1C(=O)c1nc(C)ccc1-c1ncccn1 [Example 180, [(1R,2S,4S,5R)-2-(methoxymethyl)-5-[[5-(trifluoromethyl)-2-pyridyl]oxy]-3-azabicyclo[2.2.2]octan-3-yl]-(6-methyl-3-pyrimidin-2-yl-2-pyridyl)methanone] | 1700 nM | 32 nM |  |
| COC[C@@H]1[C@@H]2CC[C@@H]([C@H](Oc3ccc(C(F)(F)F)cn3)C2)N1C(=O)c1ccccc1-c1ncccn1 [Example 181, [(1R,2S,4S,5R)-2-(methoxymethyl)-5-[[5-(trifluoromethyl)-2-pyridyl]oxy]-3-azabicyclo[2.2.2]octan-3-yl]-(2-pyrimidin-2-ylphenyl)methanone] | > 10000 nM | 87 nM |  |
| Cc1ccc(-c2ncccn2)c(C(=O)N2[C@H](C)[C@H]3C[C@@H](Oc4ccc(C(F)F)cn4)[C@@H]2C3)n1 [Example 182, [(1R,2R,4S,5R)-5-[[5-(difluoromethyl)-2-pyridyl]oxy]-2-methyl-3-azabicyclo[2.2.1]heptan-3-yl]-(6-methyl-3-pyrimidin-2-yl-2-pyridyl)methanone] | 95 nM | 11 nM |  |
| CCOC(=O)[C@@H]1[C@H]2C[C@@H](Oc3ccc(C(F)(F)F)cn3)[C@H](C2)N1C(=O)c1nc(C)ccc1-n1nccn1 [Example 192, ethyl (1R,2S,4S,5R)-3-[6-methyl-3-(triazol-2-yl)pyridine-2-carbonyl]-5-[[5-(trifluoromethyl)-2-pyridyl]oxy]-3-azabicyclo[2.2.1]heptane-2-carboxylate] | 795 nM | 53 nM |  |
| C[C@@H]1[C@H]2C[C@@H](Oc3ccc(C(F)(F)F)cn3)[C@H](C2)N1C(=O)c1ccc(OCCF)cc1-n1nccn1 [Example 202, [4-(2-fluoroethoxy)-2-(triazol-2-yl)phenyl]-[(1R,2R,4S,5R)-2-methyl-5-[[5-(trifluoromethyl)-2-pyridyl]oxy]-3-azabicyclo[2.2.1]heptan-3-yl]methanone] | > 10000 nM | 196 nM |  |
| C[C@@H]1[C@H]2C[C@@H](Oc3ccc(C(F)(F)F)cn3)[C@H](C2)N1C(=O)c1cc2ccccc2nc1OCCO [Example 203, [2-(2-hydroxyethoxy)-3-quinolyl]-[(1R,2R,4S,5R)-2-methyl-5-[[5-(trifluoromethyl)-2-pyridyl]oxy]-3-azabicyclo[2.2.1]heptan-3-yl]methanone] | > 10000 nM | 60 nM |  |
| C[C@@H]1[C@H]2C[C@@H](Oc3ccc(C(F)(F)F)cn3)[C@H](C2)N1C(=O)c1cc(OCCBr)ccc1-n1nccn1 [Example 204, [5-(2-bromoethoxy)-2-(triazol-2-yl)phenyl]-[(1R,2R,4S,5R)-2-methyl-5-[[5-(trifluoromethyl)-2-pyridyl]oxy]-3-azabicyclo[2.2.1]heptan-3-yl]methanone] | 236 nM | 71 nM |  |
| C[C@@H]1[C@H]2C[C@@H](Oc3ccc(C(F)(F)F)cn3)[C@H](C2)N1C(=O)c1cc2ccccc2nc1OCCF [Example 205, [2-(2-fluoroethoxy)-3-quinolyl]-[(1R,2R,4S,5R)-2-methyl-5-[[5-(trifluoromethyl)-2-pyridyl]oxy]-3-azabicyclo[2.2.1]heptan-3-yl]methanone] | 5400 nM | 22 nM |  |
| C[C@@H]1[C@H]2C[C@@H](Oc3ccc(C(F)(F)F)cn3)[C@H](C2)N1C(=O)c1c(OCCF)ccc2cccnc12 [Example 206, (7-(2-fluoroethoxy)quinolin-8-yl)((1S,3R,4R,6R)-3-methyl-6-((5-(trifluoromethyl)pyridin-2-yl)oxy)-2-azabicyclo[2.2.1]heptan-2-yl)methanone] | 286 nM | 7.4 nM |  |
| C[C@@H]1[C@H]2C[C@@H](Oc3ccc(C(F)(F)F)c(F)n3)[C@H](C2)N1C(=O)c1ccccc1-c1ncccn1 [Example 219, (2-(pyrimidin-2-yl)phenyl)((1S,3R,4R,6R)-3-methyl-6-((6-fluoro-5-(trifluoromethyl)pyridin-2-yl)oxy)-2-azabicyclo[2.2.1]heptan-2-yl)methanone] | 1010 nM | 4 nM |  |
